Legend:
Experiment in all cases: KinaseProfiler kinase panel
HIPK3(h) = HIPK3(h) (Homo sapiens (Human), UniProt Q9H422); assay type: biochemical
Flt3(h) = Flt3(h) (Homo sapiens (Human), UniProt P36888); assay type: biochemical
HIPK2(h) = HIPK2(h) (Homo sapiens (Human), UniProt Q9H2X6); assay type: biochemical
PKG1β(h) = PKG1β(h) (Homo sapiens (Human), UniProt Q13976); assay type: biochemical
HIPK1(h) = HIPK1(h) (Homo sapiens (Human), UniProt Q86Z02); assay type: biochemical
MSK2(h) = MSK2(h) (Homo sapiens (Human), UniProt O75676); assay type: biochemical
Flt4(h) = Flt4(h) (Homo sapiens (Human), UniProt P35916); assay type: biochemical
cKit(V560G)(h) = cKit(V560G)(h) (Homo sapiens (Human), UniProt P10721, V560G); assay type: biochemical
PKBγ(h) = PKBγ(h) (Homo sapiens (Human), UniProt Q9Y243); assay type: biochemical
PKBγ(h), sequence (Q9Y243 whole entry): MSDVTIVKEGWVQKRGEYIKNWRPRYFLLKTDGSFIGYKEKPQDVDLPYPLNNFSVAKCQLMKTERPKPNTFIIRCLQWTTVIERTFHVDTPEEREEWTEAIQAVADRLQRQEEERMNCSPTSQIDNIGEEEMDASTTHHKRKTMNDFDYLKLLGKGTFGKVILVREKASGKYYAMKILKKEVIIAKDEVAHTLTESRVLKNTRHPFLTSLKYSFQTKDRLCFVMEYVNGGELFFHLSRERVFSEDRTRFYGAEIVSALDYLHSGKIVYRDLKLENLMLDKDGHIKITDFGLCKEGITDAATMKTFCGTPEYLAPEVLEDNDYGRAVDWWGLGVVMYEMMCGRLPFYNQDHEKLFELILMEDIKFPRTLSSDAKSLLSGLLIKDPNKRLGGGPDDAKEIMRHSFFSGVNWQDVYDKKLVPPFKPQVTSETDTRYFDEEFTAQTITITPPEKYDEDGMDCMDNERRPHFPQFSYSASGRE

Yes(h) = Yes(h) (Homo sapiens (Human), UniProt P07947); assay type: biochemical
STK33(h) = STK33(h) (Homo sapiens (Human), UniProt Q9BYT3); assay type: biochemical
Fgr(h) = Fgr(h) (Homo sapiens (Human), UniProt P09769); assay type: biochemical
Fgr(h), sequence (P09769 whole entry): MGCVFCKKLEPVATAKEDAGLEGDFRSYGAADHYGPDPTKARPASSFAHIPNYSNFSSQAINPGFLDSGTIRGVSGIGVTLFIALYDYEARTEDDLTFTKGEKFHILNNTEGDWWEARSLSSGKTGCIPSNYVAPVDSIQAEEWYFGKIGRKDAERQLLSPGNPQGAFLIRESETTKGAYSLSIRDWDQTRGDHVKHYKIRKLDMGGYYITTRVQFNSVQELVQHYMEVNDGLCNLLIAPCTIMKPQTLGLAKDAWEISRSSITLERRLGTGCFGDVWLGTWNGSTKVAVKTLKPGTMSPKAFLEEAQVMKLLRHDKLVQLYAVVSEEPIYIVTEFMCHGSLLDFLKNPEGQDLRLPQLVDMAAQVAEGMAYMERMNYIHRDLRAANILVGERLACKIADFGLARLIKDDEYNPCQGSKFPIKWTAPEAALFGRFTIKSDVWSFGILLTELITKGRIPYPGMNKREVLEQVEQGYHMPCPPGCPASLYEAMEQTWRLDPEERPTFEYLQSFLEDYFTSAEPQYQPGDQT

PKA(h) = PKA(h) (Homo sapiens (Human), UniProt P17612); assay type: biochemical
IKKβ(h) = IKKβ(h) (Homo sapiens (Human), UniProt O14920); assay type: biochemical
Rsk1(r) = Rsk1(r) (Rattus norvegicus (Rat), UniProt Q63531); assay type: biochemical
CHK2(I157T)(h) = CHK2(I157T)(h) (Homo sapiens (Human), UniProt O96017, I157T); assay type: biochemical
CHK2(I157T)(h), sequence (O96017 whole entry I157T): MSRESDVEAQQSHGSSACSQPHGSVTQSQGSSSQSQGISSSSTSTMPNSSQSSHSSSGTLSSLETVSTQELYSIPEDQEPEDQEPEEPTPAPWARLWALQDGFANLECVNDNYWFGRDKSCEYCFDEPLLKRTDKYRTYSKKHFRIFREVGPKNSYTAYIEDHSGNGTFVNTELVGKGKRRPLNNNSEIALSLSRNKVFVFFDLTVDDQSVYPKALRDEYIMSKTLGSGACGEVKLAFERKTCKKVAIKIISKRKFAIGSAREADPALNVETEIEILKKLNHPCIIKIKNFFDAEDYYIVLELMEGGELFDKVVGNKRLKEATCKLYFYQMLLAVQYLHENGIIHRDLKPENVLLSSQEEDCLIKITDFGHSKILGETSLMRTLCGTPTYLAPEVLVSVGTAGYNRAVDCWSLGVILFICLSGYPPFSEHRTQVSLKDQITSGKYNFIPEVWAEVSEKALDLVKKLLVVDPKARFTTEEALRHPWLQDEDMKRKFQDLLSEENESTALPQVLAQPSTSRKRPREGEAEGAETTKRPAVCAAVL

CLK3(h) = CLK3(h) (Homo sapiens (Human), UniProt P49761); assay type: biochemical
CK1γ2(h) = CK1γ2(h) (Homo sapiens (Human), UniProt P78368); assay type: biochemical
IGF-1R(h), activated = IGF-1R(h), activated (Homo sapiens (Human), UniProt P08069); assay type: biochemical
MINK(h) = MINK(h) (Homo sapiens (Human), UniProt Q8N4C8); assay type: biochemical
MLCK(h) = assay type: biochemical, human; settings: 1 μM
CK1γ3(h) = CK1γ3(h) (Homo sapiens (Human), UniProt Q9Y6M4); assay type: biochemical
CK1γ3(h), sequence (Q9Y6M4 whole entry): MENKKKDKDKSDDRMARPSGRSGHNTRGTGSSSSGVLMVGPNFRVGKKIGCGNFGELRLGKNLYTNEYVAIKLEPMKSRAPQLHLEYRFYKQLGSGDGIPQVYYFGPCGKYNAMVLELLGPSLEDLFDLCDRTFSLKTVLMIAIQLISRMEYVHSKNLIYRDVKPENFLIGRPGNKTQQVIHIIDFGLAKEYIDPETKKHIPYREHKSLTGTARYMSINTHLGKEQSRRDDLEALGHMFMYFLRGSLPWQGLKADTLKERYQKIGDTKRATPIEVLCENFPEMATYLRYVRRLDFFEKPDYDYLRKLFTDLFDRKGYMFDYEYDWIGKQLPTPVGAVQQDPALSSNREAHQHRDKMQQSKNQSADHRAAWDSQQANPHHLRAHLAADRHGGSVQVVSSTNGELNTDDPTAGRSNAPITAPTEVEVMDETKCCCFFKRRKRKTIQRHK

Abl(m) = Abl(m) (Mus musculus (Mouse), UniProt P00520); assay type: biochemical
Abl(m), sequence (P00520 whole entry): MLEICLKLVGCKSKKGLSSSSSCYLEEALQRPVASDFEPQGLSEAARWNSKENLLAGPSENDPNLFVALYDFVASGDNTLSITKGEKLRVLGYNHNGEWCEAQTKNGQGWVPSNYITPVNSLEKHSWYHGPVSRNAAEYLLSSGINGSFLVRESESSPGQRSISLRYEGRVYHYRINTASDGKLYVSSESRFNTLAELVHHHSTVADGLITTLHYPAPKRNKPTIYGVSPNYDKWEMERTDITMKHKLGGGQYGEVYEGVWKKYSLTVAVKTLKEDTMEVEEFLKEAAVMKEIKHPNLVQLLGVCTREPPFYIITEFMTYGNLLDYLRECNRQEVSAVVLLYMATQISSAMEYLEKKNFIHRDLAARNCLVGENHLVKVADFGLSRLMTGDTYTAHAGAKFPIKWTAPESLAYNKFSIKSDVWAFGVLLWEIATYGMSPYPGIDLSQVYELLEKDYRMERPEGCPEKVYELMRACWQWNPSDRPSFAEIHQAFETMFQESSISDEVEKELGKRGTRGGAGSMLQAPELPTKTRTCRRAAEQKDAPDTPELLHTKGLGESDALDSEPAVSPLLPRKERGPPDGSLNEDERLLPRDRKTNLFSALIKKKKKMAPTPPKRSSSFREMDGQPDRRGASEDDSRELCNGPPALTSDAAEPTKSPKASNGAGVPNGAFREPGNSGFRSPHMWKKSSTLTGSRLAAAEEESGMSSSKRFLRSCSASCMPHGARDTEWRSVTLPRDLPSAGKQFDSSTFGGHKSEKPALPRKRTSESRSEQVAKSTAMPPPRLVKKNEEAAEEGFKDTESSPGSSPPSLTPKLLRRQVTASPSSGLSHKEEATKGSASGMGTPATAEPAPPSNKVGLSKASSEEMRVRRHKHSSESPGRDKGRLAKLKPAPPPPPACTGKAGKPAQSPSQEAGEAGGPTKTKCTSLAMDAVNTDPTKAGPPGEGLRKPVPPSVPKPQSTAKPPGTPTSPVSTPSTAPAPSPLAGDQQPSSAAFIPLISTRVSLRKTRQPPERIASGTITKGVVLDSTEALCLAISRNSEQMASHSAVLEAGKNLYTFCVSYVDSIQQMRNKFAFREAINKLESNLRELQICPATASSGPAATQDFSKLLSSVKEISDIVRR

FGFR2(h) = FGFR2(h) (Homo sapiens (Human), UniProt P21802); assay type: biochemical
NEK2(h) = NEK2(h) (Homo sapiens (Human), UniProt P51955); assay type: biochemical
NEK2(h), sequence (P51955 whole entry): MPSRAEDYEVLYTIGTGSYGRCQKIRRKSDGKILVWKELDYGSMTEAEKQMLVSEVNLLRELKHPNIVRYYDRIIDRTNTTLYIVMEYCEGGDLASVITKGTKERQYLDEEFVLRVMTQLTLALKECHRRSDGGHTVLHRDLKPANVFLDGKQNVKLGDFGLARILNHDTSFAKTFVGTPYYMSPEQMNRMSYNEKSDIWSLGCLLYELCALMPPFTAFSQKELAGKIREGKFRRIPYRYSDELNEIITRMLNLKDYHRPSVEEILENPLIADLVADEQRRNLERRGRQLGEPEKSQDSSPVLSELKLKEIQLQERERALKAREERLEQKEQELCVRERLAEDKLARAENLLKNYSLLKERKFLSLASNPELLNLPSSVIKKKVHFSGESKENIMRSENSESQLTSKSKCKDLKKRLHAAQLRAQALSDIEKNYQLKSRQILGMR

Fms(Y969C)(h) = Fms(Y969C)(h) (Homo sapiens (Human), UniProt P07333, Y969C); assay type: biochemical
MST2(h) = MST2(h) (Homo sapiens (Human), UniProt Q13188); assay type: biochemical
PKCγ(h) = PKCγ(h) (Homo sapiens (Human), UniProt P05129); assay type: biochemical
Arg(m) = Arg(m) (Mus musculus (Mouse), UniProt Q4JIM5); assay type: biochemical
LIMK1(h) = LIMK1(h) (Homo sapiens (Human), UniProt P53667); assay type: biochemical
DAPK1(h) = DAPK1(h) (Homo sapiens (Human), UniProt P53355); assay type: biochemical
Plk3(h) = Plk3(h) (Homo sapiens (Human), UniProt Q9H4B4); assay type: biochemical
SRPK2(h) = SRPK2(h) (Homo sapiens (Human), UniProt P78362); assay type: biochemical
SRPK2(h), sequence (P78362 whole entry): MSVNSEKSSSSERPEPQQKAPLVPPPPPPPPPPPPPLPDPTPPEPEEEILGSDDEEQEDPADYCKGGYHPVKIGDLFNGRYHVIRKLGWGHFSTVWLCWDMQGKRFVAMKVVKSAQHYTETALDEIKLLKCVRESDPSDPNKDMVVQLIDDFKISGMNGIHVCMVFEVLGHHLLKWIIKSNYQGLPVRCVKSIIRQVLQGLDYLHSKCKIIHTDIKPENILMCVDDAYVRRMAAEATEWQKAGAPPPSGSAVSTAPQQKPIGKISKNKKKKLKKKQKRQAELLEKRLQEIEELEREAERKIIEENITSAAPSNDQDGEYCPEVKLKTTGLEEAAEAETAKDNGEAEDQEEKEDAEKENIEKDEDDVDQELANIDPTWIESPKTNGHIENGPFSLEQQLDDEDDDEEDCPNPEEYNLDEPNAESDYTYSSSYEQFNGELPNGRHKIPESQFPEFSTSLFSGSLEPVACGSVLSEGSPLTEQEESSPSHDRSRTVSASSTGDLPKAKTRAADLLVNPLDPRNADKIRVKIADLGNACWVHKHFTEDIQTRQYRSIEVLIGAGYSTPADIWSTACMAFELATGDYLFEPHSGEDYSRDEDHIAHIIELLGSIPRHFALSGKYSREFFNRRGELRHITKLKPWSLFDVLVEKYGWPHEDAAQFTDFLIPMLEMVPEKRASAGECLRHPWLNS

TLK2(h) = TLK2(h) (Homo sapiens (Human), UniProt Q86UE8); assay type: biochemical
MAPKAP-K3(h) = MAPKAP-K3(h) (Homo sapiens (Human), UniProt Q16644); assay type: biochemical
Abl(h) = Abl(h) (Homo sapiens (Human), UniProt P00519); assay type: biochemical
Abl (H396P) (h) = Abl (H396P) (h) (Homo sapiens (Human), UniProt P00519, H396P); assay type: biochemical
BTK(h) = BTK(h) (Homo sapiens (Human), UniProt Q06187); assay type: biochemical
BTK(h), sequence (Q06187 whole entry): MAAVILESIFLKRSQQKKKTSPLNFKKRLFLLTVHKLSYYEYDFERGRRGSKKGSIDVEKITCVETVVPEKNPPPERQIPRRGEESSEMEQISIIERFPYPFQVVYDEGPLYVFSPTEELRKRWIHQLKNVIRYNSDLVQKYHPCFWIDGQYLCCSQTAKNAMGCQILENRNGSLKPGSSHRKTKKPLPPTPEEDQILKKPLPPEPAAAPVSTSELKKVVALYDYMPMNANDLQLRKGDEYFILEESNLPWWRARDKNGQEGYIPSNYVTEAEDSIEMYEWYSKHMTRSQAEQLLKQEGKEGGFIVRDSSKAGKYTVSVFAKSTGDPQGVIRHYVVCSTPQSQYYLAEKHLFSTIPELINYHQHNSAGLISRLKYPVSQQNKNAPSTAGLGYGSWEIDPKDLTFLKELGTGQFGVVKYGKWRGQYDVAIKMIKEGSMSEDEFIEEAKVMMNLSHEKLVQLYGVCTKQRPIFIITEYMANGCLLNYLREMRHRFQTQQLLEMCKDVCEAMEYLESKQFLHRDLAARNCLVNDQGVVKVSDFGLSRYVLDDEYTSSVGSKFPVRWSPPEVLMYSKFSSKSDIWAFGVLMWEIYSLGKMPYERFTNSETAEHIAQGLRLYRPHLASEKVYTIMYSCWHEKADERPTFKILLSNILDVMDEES

CHK1(h) = CHK1(h) (Homo sapiens (Human), UniProt O14757); assay type: biochemical
NEK7(h) = NEK7(h) (Homo sapiens (Human), UniProt Q8TDX7); assay type: biochemical

remaining activity at 1 µM (HIPK3(h)): -1%
remaining activity at 1 µM (Flt3(h)): 0%
remaining activity at 1 µM (HIPK2(h)): 1%
remaining activity at 1 µM (PKG1β(h)): 5%
remaining activity at 1 µM (HIPK1(h)): 8%
remaining activity at 1 µM (MSK2(h)): 16%
remaining activity at 1 µM (Flt4(h)): 17%
remaining activity at 1 µM (cKit(V560G)(h)): 35%
remaining activity at 1 µM (PKBγ(h)): 39%
remaining activity at 1 µM (Yes(h)): 48%
remaining activity at 1 µM (STK33(h)): 66%
remaining activity at 1 µM (Fgr(h)): 67%
remaining activity at 1 µM (PKA(h)): 70%
remaining activity at 1 µM (IKKβ(h)): 78%
remaining activity at 1 µM (Rsk1(r)): 79%
remaining activity at 1 µM (CHK2(I157T)(h)): 80%
remaining activity at 1 µM (CLK3(h)): 82%
remaining activity at 1 µM (CK1γ2(h)): 85%
remaining activity at 1 µM (IGF-1R(h), activated): 87%
remaining activity at 1 µM (MINK(h)): 87%
% remaining activity (MLCK(h)): 88%
remaining activity at 1 µM (CK1γ3(h)): 89%
remaining activity at 1 µM (Abl(m)): 90%
remaining activity at 1 µM (FGFR2(h)): 91%
remaining activity at 1 µM (NEK2(h)): 91%
remaining activity at 1 µM (Fms(Y969C)(h)): 92%
remaining activity at 1 µM (MST2(h)): 93%
remaining activity at 1 µM (PKCγ(h)): 93%
remaining activity at 1 µM (Arg(m)): 96%
remaining activity at 1 µM (LIMK1(h)): 98%
remaining activity at 1 µM (DAPK1(h)): 100%
remaining activity at 1 µM (Plk3(h)): 101%
remaining activity at 1 µM (SRPK2(h)): 102%
remaining activity at 1 µM (TLK2(h)): 104%
remaining activity at 1 µM (MAPKAP-K3(h)): 106%
remaining activity at 1 µM (Abl(h)): 107%
remaining activity at 1 µM (Abl (H396P) (h)): 107%
remaining activity at 1 µM (BTK(h)): 107%
remaining activity at 1 µM (CHK1(h)): 113%
remaining activity at 1 µM (NEK7(h)): 115%
SMILES: CCn1c(N2CCNCC2)nc2c(Br)c(Br)c(Br)c(Br)c21 [Compound 416, 4,5,6,7-tetrabromo-1-ethyl-2-(piperazin-1-yl)-1H-benzo[d]imidazole]

— US8604217B2, “Compound, a process for its preparation, a pharmaceutical composition, use of a compound, a method for modulating or regulating serine/threonine kinases and a serine/threonine kinases modulating agent” (Selvita S.A., priority 2009, dated 2013)
